Test results as given in patent US11220491B2, “Photoprotective compositions containing Malassezia-derived compounds and/or chemical analogs thereof” (Versicolor Technologies, LLC, priority 2018, dated 2022).
Entries after “also recorded” stand apart in the source; their conditions may differ.

What was measured:
MelanoDerm™ Skin Model = experiment: MelanoDerm assay, pigmentation of tissues (Example 12); assay type: cell-based, human; conditions: day 7; 200 μM and 50 μM
Method: The MelanoDerm™ Skin Model will be exposed to the test article for a total of 7 days. […] (Berridge et al., 1996).
Ten and 25 microliters, respectively, of each test article will be applied to each tissue. Twenty five microliters of the positive and negative controls, respectively, will be applied to each tissue.
The definitive assay will include a negative control and a positive control. The MelanoDerm™ tissues designated to the assay negative control will be treated with 25 μL of sterile, deionized water. Twenty five microliters of 1% Kojic acid (prepared in sterile, deionized water and filtered at the time of preparation) will be used to dose the tissues designated to the assay positive control. The 1% Kojic acid will be stored in a tube covered with aluminum foil until used within 2 hours of preparation. The negative and positive control exposure times will be identical to those used for the test articles.
The exact procedures used to collect images of the tissues will be specified in the study workbook and report.
The trial will be conducted over a 7-day timeframe.
The exact procedures used to collect images of the tissues will be specified in the study workbook and report. Then, the viability of the tissues will be determined by MTT reduction as indicated below.

[1] = tested on: primary human melanocytes; conditions: cited from earlier work
[2] = target: T1, arylhydrocarbon receptor (AhR) (Homo sapiens, UniProt P35869); experiment: HepG2-AhR-Luciferase assay; conditions: EC50 (uM), Table 2; 24 hours of treatment
T1 sequence (P35869 11-848): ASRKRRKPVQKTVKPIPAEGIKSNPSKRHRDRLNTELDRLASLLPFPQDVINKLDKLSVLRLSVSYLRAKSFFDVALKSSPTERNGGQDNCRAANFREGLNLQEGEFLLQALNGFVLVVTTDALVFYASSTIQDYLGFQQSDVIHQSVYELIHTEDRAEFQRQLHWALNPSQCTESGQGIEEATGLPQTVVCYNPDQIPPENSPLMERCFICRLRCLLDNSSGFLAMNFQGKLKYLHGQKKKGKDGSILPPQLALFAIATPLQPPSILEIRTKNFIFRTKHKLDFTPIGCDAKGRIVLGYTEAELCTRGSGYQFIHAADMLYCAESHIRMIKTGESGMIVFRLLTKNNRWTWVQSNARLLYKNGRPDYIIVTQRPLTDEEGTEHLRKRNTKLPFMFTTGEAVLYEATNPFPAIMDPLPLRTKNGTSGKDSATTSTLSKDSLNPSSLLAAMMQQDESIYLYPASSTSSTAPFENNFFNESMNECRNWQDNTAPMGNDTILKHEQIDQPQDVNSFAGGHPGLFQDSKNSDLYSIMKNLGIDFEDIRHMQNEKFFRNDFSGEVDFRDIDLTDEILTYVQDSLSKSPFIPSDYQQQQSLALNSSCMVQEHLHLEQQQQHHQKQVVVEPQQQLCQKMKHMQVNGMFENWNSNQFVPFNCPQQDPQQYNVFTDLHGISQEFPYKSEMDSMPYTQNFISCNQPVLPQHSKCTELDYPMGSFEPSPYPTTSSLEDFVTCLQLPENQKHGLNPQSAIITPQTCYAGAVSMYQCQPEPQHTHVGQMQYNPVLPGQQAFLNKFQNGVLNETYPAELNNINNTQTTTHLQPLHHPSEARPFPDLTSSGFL
Method: HepG2-AhR-Luc cells were purchased from Pharmaron, One-Glo Luciferase assay system was purchased from Promega. DMEM was purchased from Hyclone, and penicillin/streptomycin was purchased from Solabio.
Culture media for stably transfected HepG2 cells was prepared by supplementing DMEM with high glucose and L-glutamine, as well as 10% FBS.
HepG2-AhR-Luc cells were cultured in T-75 flasks at 37° C., 5% CO2, and 95% relative humidity. Cells were allowed to reach 80-90% confluence before detachment and splitting.
Cultivated cells were rinsed with 5 mL PBS. PBS was aspirated away, 1.5 mL trypsin was added to the flask, and cells were incubated at 37° C. for approximately 5 minutes or until the cells detached and floated. Trypsin was inactivated by adding excess serum-containing media.
The cell suspension was transferred to a conical tube and centrifuged at 120 g for 10 minutes to pellet the cells. Cells were resuspended in seeding media at a proper density. 40 μL of cells were transferred to a 384-well culture plate (5×10^3 cells/well). Plates were placed in the incubator at 37° C. for 24 hours.
Afterward, stock solutions of test compounds and omeprazole positive control were prepared. Compound solutions were transferred into the assay plate using Echo550. The plate was then placed back into the incubator for compound treatment.
Later, after 24 hours of treatment, the plate was removed from the incubator and allowed to cool at ambient temperature. 30 μL One-Glo reagent equal to that of the culture medium was added in each well. Cells were allowed to lyse for at least 3 minutes, and then measured in a luminometer.
Dose responses were graphed using the non-linear regression analysis in XLfit and EC50 values were also calculated.

[3] = target: T1, arylhydrocarbon receptor (AhR); design: HepG2 cells stably transfected with an AhR-responsive luciferase reporter gene plasmid; host or cells: HepG2-AhR-Luc (HepG2 stably transfected with an AhR-responsive luciferase reporter plasmid); conditions: cited from earlier work
[4] = tested on: Caspase 3/7 in MeWo cells; experiment: Caspase-Glo 3/7 assay (Example 16); assay type: cell-based; conditions: 100 uM
Method: (§1) Cells were harvested and the cell number was determined using a Countess Cell Counter. The cells were diluted with culture medium to the desired density.
(§2) Test compounds were dissolved in DMSO to 30 mM stock. […] After the indicated incubation time, the plates were removed from the incubator for detection.
(§3) Caspase-Glo 3/7 reagents also were thawed and equilibrated to room temperature before the experiment.

[5] = tested on: Caspase 3/7 in WM115 cells; experiment: Caspase-Glo 3/7 assay (Example 16); assay type: cell-based; conditions: 100 uM
Method: as §1, §2, §3

MeWo cells = experiment: Annexin V assay (Example 16); assay type: cell-based; conditions: 100 uM
Method: as §1, §2
(§4) For the Annexin V assay, plates were removed from the incubator and culture media was removed. […] Plates were read using ImageXpress Nano.

WM115 cells = experiment: Annexin V assay (Example 16); assay type: cell-based; conditions: 100 uM
Method: as §1, §2, §4

B16F1 cells = experiment: Annexin V assay (Example 16); assay type: cell-based; conditions: 100 uM
Method: as §1, §2, §4

[6] = tested on: UV-induced erythema of the subject's skin; experiment: In vivo photoprotection proof of concept, UVB irradiation of treated skin sites (Example 38); design: species or system human
Excerpt: The Malassezin 1% formulation used in this study contained the following ingredients: Water (aqua)—65.939%; Dimethyl isosorbide—20.000%; Olive Oil Glycereth-8 Esters—3.000%; Glycerin—2.991%; Coconut Alkanes—2.700%; Hydroxyethyl Acrylate/Sodium Acryloyldimethyl Taurate Copolymer—1.700%; Malassezin—1.000%; Pentylene Glycol—1.000%; Phenoxyethanol—0.640%; Coco-Caprylate/Caprate—0.300%; Caprylyl Glycol—0.200%; Chlorphenesin—0.160%; Sorbitan Isostearate—0.140%; Tocopherol—0.100%; Polysorbate 60-0.080%; and Disodium EDTA—0.050%.
A Skin Type IV […] was included in this Proof of Concept study.
A template of 6 squares was placed on the lower left back (1.5 cm×1.5 cm) of the test subject.
Twenty-four hours after irradiation, the subject returned for MED assessment.
A second right lower square was treated twice daily from day 4 to day 7, and a third medial square for one application on day 7. The product vehicle was applied for 7 days twice daily on the left back. The subject returned to the research center for irradiation on day 7. Each test site was irradiated with 120 mJ of UVB exposure. The subject returned in 24 hours for assessment of phototoxicity/photoprotection.
The subject continued the experiment, receiving Malassezin 1% for a total of 14 days. […]

O=Cc1c(Cc2c[nH]c3ccccc23)[nH]c2ccccc12 [Malassezin, malassezin]
pigmentation of tissues (MelanoDerm™ Skin Model): reduced pigmentation | apoptosis induction [1]: induces apoptosis | EC50 [2]: 13.4 µM | AhR agonism [3]: known agonist; also recorded: aryl hydrocarbon receptor agonist | Caspase 3/7 activation [4]: activated Caspase 3/7 | Caspase 3/7 activation [5]: activated Caspase 3/7 | cell death (Annexin V staining) (MeWo cells): induced cell death | cell death (Annexin V staining) (WM115 cells): induced cell death | cell death (Annexin V staining) (B16F1 cells): induced cell death | UV protection, conclusion of the study [6]: UV-protective properties
